Results reported in patent publication US8563717B2, “Adenine derivatives” (GlaxoSmithKline LLC, priority 2008, dated 2013).
Where a name gives a salt, the structure may show the parent alone.

Test system: Interferon-α
Experiment: Induction of Interferon-α using cryopreserved human PBMCs
Assay type: cell-based
Details: PBMC, 24 h incubation, normalised to 1 uM resiquimod, read-out: mean pEC50 for induction of IFN-α (converted)
Experimental: Assay for the Induction of Interferon-α Using Cryopreserved Human Peripheral Blood Mononuclear Cells (PBMCs)
Compounds were dissolved in DMSO. Serial 2-fold dilutions with DMSO were prepared and 0.25 μl dispensed into 384-well clear Greiner polypropylene plates.
Blood samples of up to 200 ml were obtained from healthy human donors. Whole blood in 25 ml volumes was overlaid onto 15 ml Ficoll gradients in Leucosep tubes, and centrifuged at 1000 g for 20 min. Cells in the band at the plasma/histopaque interface were carefully removed and washed twice with PBS (centrifuged at 400 g for 5 min to harvest). The final pellet was resuspended in freezing medium (90% Heat-inactivated serum, 10% DMSO) to a cell concentration of 4×10^7 cells/ml. The resuspended cells were then cryopreserved (frozen) using a rate controlled freezer, and stored at −140° C. for up to 4 months.
Immediately prior to assay, vials of cryopreserved (frozen) PBMCs were thawed rapidly in a water bath at 37° C. A 1:10 dilution of the cells in trypan blue was prepared and counted. The PBMCs were then diluted in growth media [RPMI 1640 containing 10% fetal calf serum (invitrogen), Penicillin+[…] (Gibco cat. #25030-024, 1:50), L-Glutamine 2 mM, and 1000 units/ml recombinant human IFN-gamma (Preprotech catalogue #300-02)] to a density of 1×10^6 cells/ml, and 50 ul/well dispensed to 384-well clear Greiner polypropylene plates containing 0.25 μl DMSO or test compound in 0.25 μl DMSO. […] Plates were incubated for 24 h at 37° C. in 5% CO2.
A multi-isoform immunoassay was used to quantify IFN-α in PBMC supernatants. Rabbit polyclonal antibody against human IFN-α (catalogue number 31101, Stratech Scientific) was diluted 1:10000 in assay buffer (RPMI 1640 containing 10% fetal calf serum, Invitrogen) and 20 μl was added to each well of an MSD (Meso-Scale Discovery) single small-spot 384-well GAR (goat anti-rabbit antibody coated) plate. The plate was incubated for 1 hour at room temperature with vigorous shaking. Following three washes with PBS, 20 μl of cell supernatant were added to each well of the plate. The plate was then incubated for 1 hour at room temperature with vigorous shaking. A pair of monoclonal antibodies to IFN-α (catalogue numbers 21100 and 21112, Stratech Scientific) were labelled with sulfo-TAG (MSD), diluted 1:1000 in assay buffer and 20 μl added to each well of the plate. The plate was further incubated for 1 hour at room temperature with vigorous shaking. Following three washes with PBS, 30 μl of x2 T buffer (MSD) was added to each well and the plate was read on an MSD Sector 6000 plate reader.
Data were normalised to internal plate controls of 1 uM resiquimod (n=16) and DMSO (n=16). pEC50 values were derived by 4-parameter curve fit with IRLS in ActivityBase, from 11-point, two-fold serial dilution of test compounds.

Structure (SMILES)	EC50 [µM]
CCCCOc1nc(N)c2[nH]c(=O)n(CCCC3CCCN(CCC4CCCCC4)C3)c2n1 (stereo not shown) [Example 52, 6-Amino-2-(butyloxy)-9-{3-[1-(2-cyclohexylethyl)-3-piperidinyl]propyl}-7,9-dihydro-8H-purin-8-one]	< 1.58
CCCCOc1nc(N)c2[nH]c(=O)n(CCC3CCCN(CC4CCCC4)C3)c2n1 (stereo not shown) [Example 37, 6-Amino-2-(butyloxy)-9-{2-[1-(cyclopentylmethyl)-3-piperidinyl]ethyl}-7,9-dihydro-8H-purin-8-one]	< 1.58
CCC[C@H](C)Oc1nc(N)c2[nH]c(=O)n(CCC3CCNCC3)c2n1 [Example 90, 6-Amino-2-{[(1S)-1-methylbutyl]oxy}-9-[2-(4-piperidinyl)ethyl]-7,9-dihydro-8H-purin-8-one]	< 1.58
CCCCOc1nc(N)c2[nH]c(=O)n(CCCCC3CCCNC3)c2n1 (stereo not shown) [Example 55, 6-amino-2-(butyloxy)-9-[4-(3-piperidinyl)butyl]-7,9-dihydro-8H-purin-8-one]	< 1.58
CCCCOc1nc(N)c2[nH]c(=O)n(CCCC3CCN(CCC(C)C)CC3)c2n1 [Example 99, 6-Amino-2-(butyloxy)-9-{3-[1-(3-methylbutyl)-4-piperidinyl]propyl}-7,9-dihydro-8H-purin-8-one]	< 1.58
CCCCOc1nc(N)c2[nH]c(=O)n(CCC3CCCN(CCCC)C3)c2n1 (stereo not shown) [Example 33, 6-Amino-2-(butyloxy)-9-[2-(1-butyl-3-piperidinyl)ethyl]-7,9-dihydro-8H-purin-8-one]	< 1.58
CCCCOc1nc(N)c2[nH]c(=O)n(CCC3CCCN(CCC4CCCCC4)C3)c2n1 (stereo not shown) [Example 39, 6-Amino-2-(butyloxy)-9-{2-[1-(2-cyclohexylethyl)-3-piperidinyl]ethyl}-7,9-dihydro-8H-purin-8-one]	< 1.58
CCCCOc1nc(N)c2[nH]c(=O)n(CC3CCN(CCCC)CC3)c2n1 [Example 72, 6-Amino-2-(butyloxy)-9-[(1-butyl-4-piperidinyl)methyl]-7,9-dihydro-8H-purin-8-one]	< 1.58
CCCCOc1nc(N)c2[nH]c(=O)n(CCCCC3CCCN(CC(C)C)C3)c2n1 (stereo not shown) [Example 60, 6-Amino-2-(butyloxy)-9-{4-[1-(2-methylpropyl)-3-piperidinyl]butyl}-7,9-dihydro-8H-purin-8-one hydrochloride]	< 1.58
CCCCOc1nc(N)c2[nH]c(=O)n(CCC3CCN(CC(C)C)CC3)c2n1 [Example 83, 6-Amino-2-(butyloxy)-9-{2-[1-(2-methylpropyl)-4-piperidinyl]ethyl}-7,9-dihydro-8H-purin-8-one]	< 1.58
CCCCOc1nc(N)c2[nH]c(=O)n(CC3CCN(CC(C)C)CC3)c2n1 [Example 73, 6-Amino-2-(butyloxy)-9-{[1-(2-methylpropyl)-4-piperidinyl]methyl}-7,9-dihydro-8H-purin-8-one]	< 1.58
CCCCOc1nc(N)c2[nH]c(=O)n(CCCC3CCCNC3)c2n1 (stereo not shown) [Example 43, 6-Amino-2-(butyloxy)-9-[3-(3-piperidinyl)propyl]-7,9-dihydro-8H-purin-8-one]	< 1.58
CCCCOc1nc(N)c2[nH]c(=O)n(CCCCCC3CCN(CCC)CC3)c2n1 [Example 124, 6-Amino-2-(butyloxy)-9-[5-(1-propyl-4-piperidinyl)pentyl]-7,9-dihydro-8H-purin-8-one]	< 1.58
CCCCOc1nc(N)c2[nH]c(=O)n(CCCCC3CCN(CCC4CCCCC4)CC3)c2n1 [Example 117, 6-Amino-2-(butyloxy)-9-{4-[1-(2-cyclohexylethyl)-4-piperidinyl]butyl}-7,9-dihydro-8H-purin-8-one]	< 1.58
CCCCOc1nc(N)c2[nH]c(=O)n(CC3CCCN(CC(C)C)C3)c2n1 (stereo not shown) [Example 26, 6-Amino-2-(butyloxy)-9-{[1-(2-methylpropyl)-3-piperidinyl]methyl}-7,9-dihydro-8H-purin-8-one]	< 1.58
CCC[C@H](C)Oc1nc(N)c2[nH]c(=O)n(CC3CCNCC3)c2n1 [Example 77, 6-Amino-2-{[(1S)-1-Methylbutyl]oxy}-9-(4-piperidinylmethyl)-7,9-dihydro-8H-purin-8-one]	< 1.58
